Structures can show the parent of a compound that is named as a salt. Where two headings read alike, the source gives them in different places.
What was measured:
[1] = Tissue distribution in rats; format: in vivo; details: bolus iv injection
Description: (§1) Male Sprague Dawley rats (300-500 g, Taconic), and male New Zealand rabbits (3-4 kg, Covance) were used in accordance with our Institutional Animal Care and Use Committee. Rats were anesthetized with sodium pentobarbital (50 mg/kg, i.p.) and the left femoral vein cannulated with PESO tubing for drug injection. Rabbits were pre-sedated with acepromazine (0.75 mg/kg i.m.) then anesthetized with ketamine (40 mg/kg, i.m.) and xylazine (8 mg/kg, i.m); the marginal ear vein was cannulated for drug injection. Additional doses of anesthetics were given as needed.
(§2) After preparation, each animal received a bolus injection of the test agent via the venous catheter. Rats and rabbits were euthanized after the injection and samples of the blood, heart, lung, liver, spleen, kidney, femur and muscle were collected. All samples were weighed and counted for radioactivity (Wallac Wizard 1480, PerkinElmer Life and Analytical Sciences, Shelton, Conn.); net radioactivity administered in each animal was determined by subtracting the residual activity in both the syringe and venous catheter. Tissue uptake of each agent was determined as a percentage of the injected dose per gram tissue (% ID/g).

PC-12 cells = experiment: PC-12 binding assay (cell uptake with or without desipramine); format: cell-based, rat; details: 0.1 μCi test agent, 60 min at 37° C.; for PC-12 (% bound) Block: with 1 μM desipramine (nonspecific uptake); for PC-12 (% bound) Control: without desipramine (total uptake)
Description: Rat pheochromocytoma cell line (PC-12) were purchased from the American Type Culture Collection (ATCC) then cultured in collagen-coated flasks (BD Bio Coat Collagen Type 1, BD Biosciences) using a growth media composed of F-12 K media, 2 mM L-glutamine, 15% horse serum, 2.5% fetal bovine serum (FBS) and 1% penicillin-streptomycin.
Prepared PC-12 cells were seeded into 6-well plates at a density of 1×10^6 cells/well with 2 mL of growth media and maintained 24 h at 37° C. under a 5% CO2 atmosphere. The media was exchanged and each well treated with 0.1 μCi test agent, with or without 1 μM desipramine. The resulting mixture was incubated for 60 min at 37° C. and 5% CO2 then centrifuged at 500×g for 3 min and washed with PBS buffer. Radioactivity associated with the cells was then measured, and total uptake determined in the wells without desipramine; nonspecific uptake was measured in the associated wells containing desipramine. The specific NET mediated cell uptake is calculated as percent total uptake minus percent nonspecific uptake.

[2] = target: T1, human norepinephrine transporter (Homo sapiens, UniProt P23975); experiment: Norepinephrine transporter binding assay ([3H]desipramine competition, MDCK cell membranes); details: competition with [3H]desipramine 2 nM, 2 h on ice; read-out: NET Affinity
T1 construct: expressed in transfected cells; host or cells: MDCK cells (membrane preparation)
T1 sequence (P23975 whole entry): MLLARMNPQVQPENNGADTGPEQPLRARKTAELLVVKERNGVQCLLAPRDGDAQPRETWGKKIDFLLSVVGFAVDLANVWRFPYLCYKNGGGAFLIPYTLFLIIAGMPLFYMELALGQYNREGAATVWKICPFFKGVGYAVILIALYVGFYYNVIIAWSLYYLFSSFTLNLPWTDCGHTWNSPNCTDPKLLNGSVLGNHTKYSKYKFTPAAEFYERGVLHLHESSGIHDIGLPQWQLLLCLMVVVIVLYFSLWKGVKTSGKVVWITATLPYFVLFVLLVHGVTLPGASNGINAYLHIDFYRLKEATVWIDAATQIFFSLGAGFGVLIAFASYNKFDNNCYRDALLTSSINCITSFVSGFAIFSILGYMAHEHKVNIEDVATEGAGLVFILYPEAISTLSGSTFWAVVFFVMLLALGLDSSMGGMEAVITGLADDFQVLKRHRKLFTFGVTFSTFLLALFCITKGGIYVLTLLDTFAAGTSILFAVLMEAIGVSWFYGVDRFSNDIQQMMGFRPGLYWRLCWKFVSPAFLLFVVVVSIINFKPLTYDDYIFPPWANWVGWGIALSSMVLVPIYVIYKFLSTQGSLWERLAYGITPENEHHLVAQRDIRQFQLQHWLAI
Description: Individual inhibitors were dissolved in incubation buffer (50 mM Tris-HCl, 10% sucrose, pH 7.4) at appropriate dilutions. The inhibitor solutions were added to the wells of a microtiter plate (40 μL/well) in triplicate. Each well of test agent (and appropriate control wells) was treated with a mixture of MDCK cell membrane preparation (22.4 μg of membrane) expressing human norepinephrine transporter (Bmax=3.7 pmol norepinephrine transporter/mg protein), and [^3H]desipramine (2 nM, 64.8 Ci/mmol) in a total volume of 0.2 mL. The resulting mixtures were incubated for 2 h on ice.
A 96 well GF/C filter plate was presoaked with coating buffer (0.5% polyvinylpyrrolidine and 0.1% Tween 20) for 2 h at room temperature, then washed with incubation buffer (6×0.2 mL). The competition reactions were transferred to the coated plate and filtered. The filter plate was washed (6×0.2 mL) with ice cold wash buffer (50 mM Tris-HCl, 0.9% NaCl, pH 7.4) then dried overnight and treated with 25 μL scintillation fluid for analysis on a plate reader (Microbeta TriLux 1450 LSC and Luminescence counter, Perkin Elmer, Shelton Conn.).

[3] = Tissue distribution in rabbits; format: in vivo; details: bolus iv injection
Description: as §1, §2

[4] = system: SK-N-SH cells with expression of NAT; experiment: Cell uptake comparison in SK-N-SH cells with or without desipramine; format: cell-based, human; details: for inhibition of cell uptake by blockade of NAT with desipramine: SK-N-SH cells, desipramine 1 μM
Description: Imaging Agent-1 cell uptake in comparison with ^3H-NA and ^123I-MIBG was assayed in human neuroblastoma cells (SK-N-SH, ATCC) with expression of NAT (Buck et al., Cancer Res. 1985; 45(12 Pt 1):6366-70). Cells were prepared in 6-well plates at a density of 1×10^6 cells/well in 2 mL media. Imaging Agent-1, ^3H-NA or ^123I-MIBG at 3.7 kBq was added to each well with or without desipramine (1 μM), a selective NAT inhibitor. In assay with NA, pargyline (10 μM) was included to inhibit monoamine oxidase activity. Following incubation for 60 minutes at 37° C., cells were washed twice with ice-cold phosphate-buffered saline, trypsinized and centrifuged at 1000 g for 3 minutes to collect cell pellet. Radioactivity associated with the cells was measured with a γ-(Wallac Wizard 1480, PerkinElmer) or β-counter (Microbeta TriLux 1450 LSC, PerkinElmer). Each assay was performed in triplicate and the uptake was expressed as a percent of total radioactivity added to the well.

[5] = system: noradrenaline transporter (NAT) in SK-N-SH cells; experiment: Competitive inhibition of Imaging Agent-1 uptake in SK-N-SH cells; format: cell-based, human; details: non-radioactive competitor 0.1-100 μM, 37° C., 60 minutes, read-out: IC50 for inhibition of Imaging Agent-1 cell uptake
Description: For the competitive inhibition assay, Imaging Agent-1 at 3.7 kBq was incubated in SK-N-SH cells with various concentrations (0.1, 1, 10, or 100 μM) of non-radioactive NA, MIBG or ^19F-Imaging Agent-1 (self) at 37° C. for 60 minutes. Similarly, following the incubation, Imaging Agent-1 cell uptake was determined. The IC50 value of each agent was determined using GraphPad software (v5).

Row | Compound | Rat Blood [1] [% ID/g] | Rat Heart [1] [% ID/g] | Rat Liver [1] [% ID/g] | Rat Lung [1] [% ID/g] | PC-12 (% bound) Block (PC-12 cells) [% bound] | PC-12 (% bound) Control (PC-12 cells) [% bound] | Ki [2] [µM] | Rabbit Blood [3] [% ID/g] | Rabbit Heart [3] [% ID/g] | Rabbit Liver [3] [% ID/g] | Rabbit Lung [3] [% ID/g] | IC50 ([5]; Homo sapiens, 1 h) [µM] | uptake in SK-N-SH cells (percent of total radioactivity added) ([4]; 3.7 kBq, 60 minutes at 37° C., without desipramine) [%] | inhibition of cell uptake by blockade of NAT with desipramine [4] [%] | IC50 [5] [µM]
1 | N=C(N)NCc1ccc(OCCC[18F])c(Br)c1 [Imaging Agent-1] |  |  |  |  |  |  |  |  |  |  |  |  | 24.6±9 | 90±3 | 
2 | N=C1NCC(c2ccc(OCCF)c(Br)c2)N1 (centres unmarked) [Example 2, 4-(3-bromo-4-(2-fluoroethoxy)phenyl)imidazolidin-2-imine, hydrochloric acid salt] | 0.19 | 1.33 | 0.25 | 0.94 | 0.60 | 3.20 | 11.2 |  |  |  |  |  |  |  | 
3 | N=C(N)NCc1cccc([123I])c1 [^123I-MIBG, ^123I-meta-iodobenzylguanidine, reference compound] |  |  |  |  |  |  |  |  |  |  |  |  |  | 94±2 | 
4 | N=C(N)NCCc1ccc(CCCF)cc1 [Example 33, 1-(4-(3-fluoropropyl)phenethyl)guanidine] | 0.10 ± 0.01 | 1.94 ± 0.16 | 0.21 ± 0.04 | 0.66 ± 0.11 | 1.50 | 2.30 | 3.95 |  |  |  |  |  |  |  | 
5 | N=C(N)NCc1ccc2cc(OCCCF)ccc2c1 [Example 12, 1-((6-(3-fluoropropoxy)naphthalen-2-yl)methyl)guanidine] | 0.37 ± 0.05 | 1.93 ± 0.11 | 0.18 ± 0.01 | 2.09 ± 0.08 | 0.50 | 5.30 | 0.14 | 0.04 ± 0.02 | 0.29 ± 0.09 | 0.02 ± 0.01 | 0.28 ± 0.17 |  |  |  | 
6 | ^3H-noradrenaline [^3H-NA, reference compound] |  |  |  |  |  |  |  |  |  |  |  |  |  | 97±2 | 
7 | N=C1NCC(c2ccc(OCCF)cc2)N1 (centres unmarked) [Example 1, 4-(4-(2-fluoroethoxy)phenyl)imidazolidin-2-imine] | 0.18 | 1.03 | 0.15 | 0.24 | 0.30 | 3.1 | 7.27 |  |  |  |  |  |  |  | 
8 | N=C(N)NCCc1c[nH]c2ccc(OCCF)cc12 [Example 21, 1-(2-(5-(2-fluoroethoxy)-1H-indol-3-yl)ethyl)guanidine] | 0.41 | 0.35 | 1.01 | 0.38 | 0.10 | 0.10 | 1.19 |  |  |  |  |  |  |  | 
9 | NC[C@H](O)c1ccc(O)c(O)c1 [NA, noradrenaline] |  |  |  |  |  |  |  |  |  |  |  | 1.09 |  |  | 
10 | N=C(N)NCc1cccc(I)c1 [MIBG, meta-iodobenzylguanidine] |  |  |  |  |  |  |  |  |  |  |  |  |  |  | 0.21

The next lines start with results.

Row | Rat Blood [1] [% ID/g] | Rat Heart [1] [% ID/g] | Rat Liver [1] [% ID/g] | Rat Lung [1] [% ID/g] | PC-12 (% bound) Block (PC-12 cells) [% bound] | PC-12 (% bound) Control (PC-12 cells) [% bound] | Ki [2] [µM] | Rabbit Blood [3] [% ID/g] | Rabbit Heart [3] [% ID/g] | Rabbit Liver [3] [% ID/g] | Rabbit Lung [3] [% ID/g] | IC50 ([5]; Homo sapiens, 1 h) [µM] | Compound | uptake in SK-N-SH cells (percent of total radioactivity added) ([4]; 3.7 kBq, 60 minutes at 37° C., without desipramine) [%] | inhibition of cell uptake by blockade of NAT with desipramine [4] [%] | IC50 [5] [µM]
11 | 0.51 ± 0.11 | 1.74 ± 0.27 | 0.61 ± 0.40 | 2.71 ± 0.51 | 2.70 | 23.90 | 0.12 | 0.04 ± 0.01 | 0.39 ± 0.02 | 0.02 ± 0.00 | 0.39 ± 0.11 |  | N=C(N)NCc1ccc2cc(OCCF)ccc2c1 [Example 11, 1-((6-(2-fluoroethoxy)naphthalen-2-yl)methyl)guanidine] |  |  | 
12 | 0.35 ± 0.15 | 0.71 ± 0.24 | 0.15 ± 0.03 | 1.12 ± 0.29 | 2.36 | 32.76 | 7.35 | 0.01 | 0.29 | 0.02 | 0.39 |  | N=C(N)NCc1ccc(CF)c(Br)c1 [Example 3, 1-(3-bromo-4-(fluoromethyl)benzyl)guanidine] |  |  | 
13 | 0.13 ± 0.02 | 1.04 ± 0.95 | 0.37 ± 0.24 | 0.34 ± 0.18 | 0.50 | 1.00 | 5.41 | 0.014 | 0.025 | 0.012 | 0.031 |  | N=C(N)NCc1ccc(COCCF)c(Br)c1 [Example 4, 1-(3-bromo-4-((2-fluoroethoxy)methyl)benzyl)guanidine] |  |  | 
14 | 0.69 | 1.23 | 0.26 | 0.59 | 0.90 | 1.00 | 18.7 |  |  |  |  |  | N=C(N)NCc1ccc(CCF)cc1 [Example 5, 1-[4-(2-fluoroethyl)benzyl]guanidine] |  |  | 
15 | 0.21 | 1.61 | 0.27 | 0.94 | 0.60 | 1.30 | 17.4 |  |  |  |  |  | N=C(N)NCc1ccc(CCF)c(Br)c1 [Example 8, 1-(3-bromo-4-(2-fluoroethyl)benzyl)guanidine] |  |  | 
